Several values for one entry are separate records, joined by “and”; a condition that tells them apart may be missing. Equal entries are not always repeated. Non-standard residues stand in square brackets, D forms with d. Residues, ends and D or L forms follow the SMILES beside them. Tic = O=C(O)[C@@H]1Cc2ccccc2CN1
Experiments:
Mu-type opioid receptor = Mu-type opioid receptor (Rattus norvegicus, UniProt P33535)
[1] = molecular target: Delta-type opioid receptor (Rattus norvegicus, UniProt P33533)
Sequence of Delta-type opioid receptor (P33533 whole entry): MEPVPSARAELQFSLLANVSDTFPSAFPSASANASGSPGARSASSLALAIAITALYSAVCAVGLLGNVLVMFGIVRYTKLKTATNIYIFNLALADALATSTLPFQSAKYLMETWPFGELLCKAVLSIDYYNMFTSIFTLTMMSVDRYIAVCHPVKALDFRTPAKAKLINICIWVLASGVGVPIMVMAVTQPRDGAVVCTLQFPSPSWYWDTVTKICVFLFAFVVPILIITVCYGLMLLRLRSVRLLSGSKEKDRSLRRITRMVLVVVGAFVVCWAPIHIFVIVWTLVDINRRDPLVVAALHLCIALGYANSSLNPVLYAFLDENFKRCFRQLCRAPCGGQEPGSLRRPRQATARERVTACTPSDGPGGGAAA

Sequence of Mu-type opioid receptor (P33535 whole entry): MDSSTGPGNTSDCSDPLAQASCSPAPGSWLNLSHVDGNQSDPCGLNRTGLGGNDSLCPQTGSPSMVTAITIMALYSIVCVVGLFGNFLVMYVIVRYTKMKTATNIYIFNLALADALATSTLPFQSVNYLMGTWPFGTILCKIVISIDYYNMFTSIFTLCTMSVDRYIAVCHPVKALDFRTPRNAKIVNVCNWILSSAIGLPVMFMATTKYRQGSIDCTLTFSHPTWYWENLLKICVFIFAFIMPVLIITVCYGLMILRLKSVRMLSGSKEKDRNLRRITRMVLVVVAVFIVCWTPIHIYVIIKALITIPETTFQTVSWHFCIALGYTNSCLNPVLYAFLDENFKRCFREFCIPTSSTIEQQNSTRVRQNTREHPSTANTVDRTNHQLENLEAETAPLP

Row | SMILES | Ki (Mu-type opioid receptor) | Ki [1]
1 | COc1cccc2c1[C@]13CCN(CC4CC4)C(C2)[C@]1(OC)CCC(=O)C3 | 4.59 nM and 7.23 nM | 
2 | CC(C)C[C@H](NC(=O)[C@H](Cc1ccccc1)NC(=O)CNC(=O)[C@@H](CO)NC(=O)[C@@H](N)Cc1ccc(O)cc1)C(=O)N[C@H](C(=O)O)[C@@H](C)O [DSLET-OH] |  | 7.34 nM and 8.71 nM
3 | Oc1ccc2c3c1OC1c4[nH]c5ccccc5c4CC4(O)[C@H](C2)N(CC2CC2)CCC314 (some centres undefined) [NALTRINDOLE] |  | 10.8 nM and 25.7 nM
4 | N[C@@H](Cc1ccc(O)cc1)C(=O)N1Cc2ccccc2C[C@H]1C(=O)N[C@@H](Cc1ccccc1)C(=O)N[C@@H](Cc1ccccc1)C(=O)O [TIPP] (H-Y[Tic]FF-OH) |  | 9150 nM and 1700 nM

Reference: BindingDB's records for doi:10.1016/s0196-9781(98)00023-0 (Hungarian Academy of Sciences, 1998)
